What all share (experiment): relative viability (nuclei count vs DMSO), 5 days (fraction); higher = more cells survive
Compound in assay [1]: CN(c1ncccc1CNc1nc(Nc2ccc3c(c2)CC(=O)N3)ncc1C(F)(F)F)S(C)(=O)=O + CCNC(=O)c1noc(-c2cc(C(C)C)c(O)cc2O)c1-c1ccc(CN2CCOCC2)cc1 [Luminespib] (partner 0.01 µM)
In short, it runs like this:
(§1)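 Nuclei were stained with Hoechst during a one-step fixation (final 0.05% Triton X-100, 1% formaldehyde, 1 ug/ml Hoechst) carried out 5 days after dosing, then counted on 4× images. The cells, lung cancer lines in 1536-well plates, had been dosed by pin tool the day after seeding with one drug alone or a fixed anchor-drug dose plus five library-drug doses (not always all listed) in √10 steps. Relative viability is the nuclei count in treated wells divided by that in vehicle wells, and each value is the median of duplicate plates.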

Compound in assay [2]: CN(c1ncccc1CNc1nc(Nc2ccc3c(c2)CC(=O)N3)ncc1C(F)(F)F)S(C)(=O)=O + CS(=O)(=O)CCNCc1ccc(-c2ccc3ncnc(Nc4ccc(OCc5cccc(F)c5)c(Cl)c4)c3c2)o1 [Lapatinib] (partner 2 µM)
In short, it runs like this: as §1

Compound in assay [3]: CN(c1ncccc1CNc1nc(Nc2ccc3c(c2)CC(=O)N3)ncc1C(F)(F)F)S(C)(=O)=O + Nc1ncn([C@H]2C[C@H](O)[C@@H](CO)O2)c(=O)n1 [Decitabine] (partner 2 µM)
In short, it runs like this:
as §1

Compound in assay [4]: CN(c1ncccc1CNc1nc(Nc2ccc3c(c2)CC(=O)N3)ncc1C(F)(F)F)S(C)(=O)=O + O=C(c1cc(Cc2n[nH]c(=O)c3ccccc23)ccc1F)N1CCN(C(=O)C2CC2)CC1 [Olaparib] (partner 8 µM)
In short, it runs like this:
as §1

As for NCI-H2347, the relative viability in assay [1] (first compound 0.01 µM) amounted to 0.643; in assay [1] (first compound 0.03162 µM) it was 0.557; in assay [1] (first compound 0.1 µM), 0.243; in assay [1] (first compound 0.3162 µM), 0.592; in assay [1] (first compound 1 µM), 0.389; in assay [2] (first compound 0.01 µM) it was 1.04. Besides, the relative viability in assay [2] (first compound 0.03162 µM) is 1.01; in assay [2] (first compound 0.1 µM), 0.88; in assay [2] (first compound 0.3162 µM) it was 0.863; in assay [2] (first compound 1 µM), 0.833; in assay [3] (first compound 0.01 µM) it was 0.655; in assay [3] (first compound 0.03162 µM), 0.598. Moreover, the relative viability came out at 0.587 in assay [3] (first compound 0.1 µM); 0.593 in assay [3] (first compound 0.3162 µM); 0.57 in assay [3] (first compound 1 µM); 0.598 in assay [4] (first compound 0.01 µM); 0.546 in assay [4] (first compound 0.03162 µM); 0.525 in assay [4] (first compound 0.1 µM). Also, the relative viability stood at 0.515 in assay [4] (first compound 0.3162 µM) and 0.443 in assay [4] (first compound 1 µM).

Turning to NCI-H2126, the relative viability was found to be 0.905 in assay [1] (first compound 0.01 µM); 0.9 in assay [1] (first compound 0.03162 µM); 0.778 in assay [1] (first compound 0.1 µM); 0.941 in assay [1] (first compound 0.3162 µM); 0.761 in assay [1] (first compound 1 µM); 0.732 in assay [2] (first compound 0.01 µM). In addition, the relative viability in assay [2] (first compound 0.03162 µM) is 0.732; in assay [2] (first compound 0.1 µM), 0.713; in assay [2] (first compound 0.3162 µM), 0.774; in assay [2] (first compound 1 µM), 0.721; in assay [3] (first compound 0.01 µM) it was 0.623; in assay [3] (first compound 0.03162 µM), 0.615. Further, the relative viability in assay [3] (first compound 0.1 µM) was found to be 0.564; in assay [3] (first compound 0.3162 µM), 0.557; in assay [3] (first compound 1 µM), 0.53; in assay [4] (first compound 0.01 µM), 0.879; in assay [4] (first compound 0.03162 µM) it was 1.01; in assay [4] (first compound 0.1 µM), 0.865. The results for the relative viability in assay [4] (first compound 0.3162 µM) and in assay [4] (first compound 1 µM) were 0.867 and 0.795, respectively.

Turning to HCC-827, the relative viability in assay [1] (first compound 0.01 µM) was 0.346; in assay [1] (first compound 0.03162 µM) it was 0.612; in assay [1] (first compound 0.1 µM), 0.595; in assay [1] (first compound 0.3162 µM), 1.02; in assay [1] (first compound 1 µM), 0.629; in assay [2] (first compound 0.01 µM) it was 0.186. Moreover, the relative viability in assay [2] (first compound 0.03162 µM) amounted to 0.149; in assay [2] (first compound 0.1 µM) it was 0.215; in assay [2] (first compound 0.3162 µM), 0.177; in assay [2] (first compound 1 µM), 0.182; in assay [3] (first compound 0.01 µM), 0.284; in assay [3] (first compound 0.03162 µM), 0.309. Moreover, the relative viability in assay [3] (first compound 0.1 µM) worked out at 0.348; in assay [3] (first compound 0.3162 µM) it was 0.413; in assay [3] (first compound 1 µM) it was 0.391; in assay [4] (first compound 0.01 µM), 0.635; in assay [4] (first compound 0.03162 µM), 0.557; in assay [4] (first compound 0.1 µM) it was 0.647. Besides, the relative viability worked out at 0.707 in assay [4] (first compound 0.3162 µM) and 0.705 in assay [4] (first compound 1 µM).

For NCI-H3122, the relative viability in assay [1] (first compound 0.01 µM) worked out at 0.0983; in assay [1] (first compound 0.03162 µM) it was 0.101; in assay [1] (first compound 0.1 µM), 0.0795; in assay [1] (first compound 0.3162 µM) it was 0.0863; in assay [1] (first compound 1 µM), 0.0795; in assay [2] (first compound 0.01 µM), 1.02. The relative viability in assay [2] (first compound 0.03162 µM) turned out to be 1.08; in assay [2] (first compound 0.1 µM) it was 1.01; in assay [2] (first compound 0.3162 µM) it was 0.956; in assay [2] (first compound 1 µM), 0.876; in assay [3] (first compound 0.01 µM), 0.445; in assay [3] (first compound 0.03162 µM), 0.423. For the same cell line, the relative viability was 0.395 in assay [3] (first compound 0.1 µM); 0.429 in assay [3] (first compound 0.3162 µM); 0.403 in assay [3] (first compound 1 µM); 0.658 in assay [4] (first compound 0.01 µM); 0.65 in assay [4] (first compound 0.03162 µM); 0.604 in assay [4] (first compound 0.1 µM). For the same cell line, the relative viability is 0.568 in assay [4] (first compound 0.3162 µM) and 0.574 in assay [4] (first compound 1 µM).

Regarding HOP-62, the relative viability amounted to 0.969 in assay [1] (first compound 0.01 µM); 0.933 in assay [1] (first compound 0.03162 µM); 0.949 in assay [1] (first compound 0.1 µM); 0.932 in assay [1] (first compound 0.3162 µM); 0.699 in assay [1] (first compound 1 µM); 1.06 in assay [2] (first compound 0.01 µM). Moreover, the relative viability was determined as 1.1 in assay [2] (first compound 0.03162 µM); 1.02 in assay [2] (first compound 0.1 µM); 1.09 in assay [2] (first compound 0.3162 µM); 0.903 in assay [2] (first compound 1 µM); 0.208 in assay [3] (first compound 0.01 µM); 0.212 in assay [3] (first compound 0.03162 µM). Moreover, the relative viability in assay [3] (first compound 0.1 µM) was 0.256; in assay [3] (first compound 0.3162 µM), 0.211; in assay [3] (first compound 1 µM), 0.245; in assay [4] (first compound 0.01 µM), 0.526; in assay [4] (first compound 0.03162 µM) it was 0.421; in assay [4] (first compound 0.1 µM), 0.326. Further, the results for the relative viability in assay [4] (first compound 0.3162 µM) and in assay [4] (first compound 1 µM) were 0.363 and 0.384, respectively.

For the cell line HCC-44, the relative viability in assay [1] (first compound 0.01 µM) came to 1.04; in assay [1] (first compound 0.03162 µM), 1.5; in assay [1] (first compound 0.1 µM), 1.24; in assay [1] (first compound 1 µM), 0.933; in assay [2] (first compound 0.01 µM), 1.09; in assay [2] (first compound 0.03162 µM) it was 0.986. The relative viability in assay [2] (first compound 0.1 µM) came to 0.987; in assay [2] (first compound 0.3162 µM), 0.993; in assay [2] (first compound 1 µM) it was 0.972; in assay [3] (first compound 0.01 µM) it was 0.871; in assay [3] (first compound 0.03162 µM) it was 0.956; in assay [3] (first compound 0.1 µM) it was 0.898. Further, the relative viability stood at 0.977 in assay [3] (first compound 0.3162 µM); 0.996 in assay [3] (first compound 1 µM); 0.959 in assay [4] (first compound 0.01 µM); 0.978 in assay [4] (first compound 0.03162 µM); 0.917 in assay [4] (first compound 0.1 µM); 0.875 in assay [4] (first compound 0.3162 µM). Further, the relative viability in assay [4] (first compound 1 µM) turned out to be 0.904.

Source of the values: the supplement of paper PMC10307832.
